For 12 compounds, TGI and GI50 results are on record in PubChem BioAssay (NCI).

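Exposure lasted 48 hours, with cells grown in 96-well plates and compounds tested at five concentrations. GI50 is the concentration that inhibits growth by half. TGI denotes the concentration required for complete inhibition of growth.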

Holding throughout (experiment): NCI anticancer screen, dose series, 48 h
The subject of assay [1] is SK-MEL-5 melanoma.
In assay [2] the test system is SN12C renal.
Assay [3] has as its system OVCAR-4 ovarian.
Assay [4] deals with HOP-92 NSCLC.
Assay [5] concerns U251 CNS.
Assay [6] concerns ACHN renal.
Assay [7] relates to OVCAR-8 ovarian.
For assay [8], the system named is NCI-H23 lung.
In assay [9] the test system is SW-620 colon.

Regarding `C[N+](C)(C)C1CC([N+](C)(C)C)C2c3ccccc3C21` (stereo not drawn), the TGI in assay [1], in assay [2], in [3], in [4], in [5] and in assay [6] was above 100 µM in each case. For the same compound, the TGI in [7], in [8] and in assay [9] was above 100 µM in each case.
Regarding `Cc1[nH]c2ccccc2c1C1=NO/C(=N\O)C(c2c(C)[nH]c3ccccc23)C1` (stereo not drawn), the TGI in assay [1] was above 31.6 µM; in assay [2] it was above 100 µM; in assay [3], above 100 µM; in assay [4], above 78.5 µM; in assay [5], above 100 µM; in [6], above 91.1 µM. Also, the TGI in [7], in assay [8] and in [9] was above 100 µM each time.
As to `CN=C1CN=C(OP(=O)(N2CCOCC2)N2CCOCC2)c2cc(Cl)ccc2N1`, the TGI in assay [1], in assay [2], in [3], in assay [5], in assay [6] and in assay [7] was above 100 µM in each case. Moreover, the TGI in [8] and in assay [9] was above 100 µM throughout.
As for `Brc1ccc(C=NC23CC4CC(CC(C4)C2)C3)cc1`, the TGI in [1], in [2], in assay [3], in assay [4], in assay [5] and in assay [6] was above 100 µM in each case. The TGI in [7], in [8] and in assay [9] was above 100 µM in each case.
As to `CC(=O)OC1=C2CC[C@@H]3C(CC[C@@]4(C)C3CC[C@@H]4OC(C)=O)[C@@]2(C)CC(C#N)C1=O` (stereo partly drawn), the TGI in assay [1] is 49.4 µM; in assay [2], above 100 µM; in assay [3], 59.4 µM; in assay [4], 54.9 µM; in assay [5], 90.5 µM; in [6] it was 71 µM. The TGI in assay [7], in [8] and in [9] was above 100 µM throughout.
On to `CCC[CH2][Sn]1([CH2]CCC)[O]CC[S]1`, for which the GI50 in assay [1] was 0.324 µM; in assay [2] it was 0.818 µM; in [3], 1.57 µM; in assay [4], 0.656 µM; in [5] it was 0.564 µM; in assay [6], 1.03 µM. The GI50 is 1.19 µM in assay [7], 0.398 µM in assay [8] and 0.268 µM in assay [9]. The TGI is 1.15 µM in assay [1]; 2.12 µM in assay [2]; 3 µM in assay [3]; 2.19 µM in [4]; 1.64 µM in assay [5]; 2.23 µM in assay [6]. For the same compound, the figures for the TGI in assay [7], in assay [8] and in assay [9] were 2.68 µM, 1.82 µM and 1.11 µM, respectively.
For the compound `C/C(=C\C(C[C@](C)(O)C(O)CCC#C[Si](C)(C)C)S(=O)(=O)c1ccccc1)CC/C=C/CO[Si](C)(C)C(C)(C)C` (stereo partly drawn), the TGI in [1] came out at 28.1 µM; in assay [2], 19 µM; in assay [3], 27.9 µM; in assay [4], 25.5 µM; in [5], 26.5 µM; in assay [6] it was 29.6 µM. Besides, the figures for the TGI in assay [7], in assay [8] and in [9] were 33.6 µM, 41.9 µM and 35.3 µM, respectively.
Consider `[Co].[O-]c1cccnc1C=Nc1ccccc1.[OH3+]`, for which the GI50 was above 100 µM in assay [1]; above 100 µM in [2]; above 100 µM in assay [3]; 28.7 µM in [4]; above 100 µM in assay [5]; 79.9 µM in [6]. The GI50 in assay [7], in assay [8] and in [9] was above 100 µM in each case. Also, the TGI in assay [1], in [2], in [3], in [4], in assay [5] and in [6] was above 100 µM in each case. In addition, the TGI in [7], in [8] and in assay [9] was above 100 µM each time.
`CC[O-].CC[O-].O=C([CH-]C(=O)c1ccccc1)CCCCCCC(=O)[CH-]C(=O)c1ccccc1.[Ti+4]`: the GI50 in assay [1], in assay [2], in [3], in assay [4], in assay [5] and in assay [6] was above 100 µM throughout. The GI50 in assay [7], in [8] and in assay [9] was above 100 µM throughout. The TGI in assay [1], in [2], in [3], in assay [4], in assay [5] and in assay [6] was above 100 µM each time. Besides, the TGI in assay [7], in [8] and in assay [9] was above 100 µM throughout.
Turning to `COc1ccccc1NC(=O)C1=C(C)NC(C)=C(C(=O)Nc2ccccc2OC)C1c1ccccc1Cl`, the TGI in [1], in assay [2], in assay [3], in [4], in assay [5] and in [6] was above 100 µM in each case. Further, the TGI in assay [7], in assay [8] and in [9] was above 100 µM each time.
On to `O=C1NC2(CCCC2)C2CCCCC12O` (stereo not drawn), for which the TGI in assay [1], in assay [2], in [3], in assay [4], in [5] and in assay [6] was above 100 µM each time. For the same compound, the TGI in assay [7], in [8] and in [9] was above 100 µM each time.
Regarding `C1C[OH+]CCNCC[OH+]CC[OH+]CCN1.N.[Cl-].[Pt+4]`, the GI50 in assay [1] is 35.5 µM; in [2] it was above 100 µM; in [3] it was above 100 µM; in [4], 35.8 µM; in assay [5], above 100 µM; in assay [6], 42 µM. Moreover, the GI50 in [7] was 18.8 µM; in assay [8], 27.1 µM; in assay [9] it was 67.7 µM. Also, the TGI in [1], in assay [2], in assay [3], in [4], in assay [5] and in assay [6] was above 100 µM in each case. For the same compound, the TGI in assay [7], in assay [8] and in assay [9] was above 100 µM in each case.
